Measurements reported in patent US6060310A, “Transcription factor decoy and tumor growth inhibitor” (priority 1997, dated 2000).

Tests used:
[1] = tested on: cancer cells: MCF7, LNCaP, A549, OVCAR 8, LS174T, KB, MCF7-TH, HCT-15; assay: Cancer cell growth in vitro (cell counts); type: cell-based, human
Procedure: (§1) Cells (0.25-1×10^5 /well) were plated in a 6-well plate containing the growth medium at 37° C. The 24-mer-CRE palindrome oligonucleotide (i.e., as described in Example 1) or two-base mismatched control oligonucleotide (i.e., as described in Example 1) was added, one day after seeding, to duplicate wells at varying concentrations. To increase the delivery of oligonucleotides into the cell, transfection reagent DOTAP was added along with the oligonucleotides. Saline treated (untreated), DOTAP treated (0 concentration), CRE, or CRE control oligonucleotide treated cells were harvested after 4 days of treatment, and cell numbers were counted in duplicate by a Coulter Counter. […] In this figure, lines with closed circles represent cells treated with the 24-mer-CRE palindrome oligonucleotide, while lines with open boxes represent cells treated with the control, mismatch oligonucleotide.

[2] = tested on: CRE-protein complex (CRE DNA-binding proteins such as 43 kDa CREB); assay: Mobility shift assay of CRE DNA-protein complex formation in nuclear extracts of treated cells; type: cell-based, human; details: cells treated 150 nM for 2 days; MCF7, MCF10A and LNCaP; versus saline treated cells
Procedure: Cells were treated with saline (i.e., control cells), the CRE 24-mer (150 nM for 2 days), or a control oligonucleotide and nuclear extracts were prepared using the method of Dignam (Dignam et al., Nucleic Acid Res. 11, 1475 [1983]). The control oligonucleotide was 5'-[…]-3' (SEQ ID NO: 8), which is a copy of the CRE 24-mer with two mismatched bases included in each consensus sequence motif (i.e., it will not bind as well to transcription factors as will the consensus sequence oligonucleotide). Nuclear extracts were obtained from the cells and were analyzed by a mobility shift assay to compare the amount of CRE-protein bound complex between treated, untreated, and control samples. The DNA binding assay was performed by a method modified from that of Fried and Crothers (Fried and Crothers, Nucleic Acid Res. 9, 6506 [1981]). Briefly, nuclear extracts (10 μg protein) were pre-incubated with poly(dI-dC).cndot. poly (dI-dC) (1 μg), DTT (0.3 mM), and binding buffer (12 mM Tris pH 7.9, 2 mM MgCI2, 60 mM KCl, 0.12 mM EDTA, and 12% glycerol) with or without antiserum (2-4 μl) for 30 min at 4° C. ^32 P-labeled oligonucleotide (double-stranded CRE triplet, 5'-[…]-3'; SEQ ID NO:12) was then added and the reaction mixtures were incubated for 10 min at 37° C. The reaction mixtures were then separated on a 4% polyacrylamide gel at 200 V for 1.5 hours. The gel was dried and autoradiographed. […]

[3] = tested on: CRE-directed transcription in MCF7 cells; assay: Transient transcription assay, somatostatin Δ-71 SS-CAT reporter; type: cell-based, human; details: for effect on CAT activity / CRE-directed transcription: intact cells, transient transcription assay
Procedure: The CRE oligonucleotide successfully interfered with the CRE-directed transcription in intact cells. To analyze the effect of CRE oligonucleotide in CRE-directed transcription, a transient transcription assay was performed using a reporter plasmid, somatostatin Δ-71 (CPE-containing promoter)-CAT (chloramphenicol acetyltransferase) fusion gene (Montminy et al., Proc. Natl. Acad. Sci. 83, 6682 [1986]). MCF7 cells were transfected with 5 μg of somatostatin-chloramphenicol acetyltransferase fusion gene (Δ-71 SS-CAT plasmid) and 4 μg of CRE (i.e., the 24-mer described in Example 1) or control oligonucleotide by the use of transfection reagent N-[1-(2,3-Dioleoyloxy)propyl]-N,N,N-trimethylammonium methysulfate (DOTAP). After 5 hours, fresh medium was added, and the cells were harvested at 48 to 72 hours, then assayed for CAT activity. Some samples were also treated with forskolin (10 μM), an compound with adenyl cyclase activating properties (i.e., a compound that increases intracellular cAMP concentrations), for the final 24 hours. Cell lysates were prepared as described by Gorman (Gorman, High efficiency gene transfer into mammalian cells, DNA Cloning, Vol II, pp 143-165, IRL press, Oxford, England [1985]). Lysates (75 μg of protein) were incubated with 0.4 μCi of [^14 C]chloramphenicol, 0.53 mM acetyl-CoA, and 250 mM Tris-HCl, pH 7.8 for 90 minutes at 37° C. Under these conditions, CAT activity was linear with time. Reaction products were analyzed by thin-layer chromatography (Gorman, supra).

[4] = Cellular uptake of 32P-labeled oligonucleotide; type: in vitro ADME, human
Procedure: To examine the efficacy of cellular incorporation of the CRE oligonucleotides, we incubated ^32 P-labeled samples of CRE-palindromeoligonucleotide and control oligonucleotide with MCF7 and MCF10A cells. Cell-associated radioactivity was quantified. Within 5 hrs, about 10% of the total input oligonucleotide accumulated in the cell and the incorporation continued to rise thereafter reaching 20-25% maximum levels at 24 hr of oligonucleotide incubation. The amounts and the rates of the incorporation of oligonucleotide were similar between MCF7 and MCF10A cells and between the CRE-decoy oligonucleotide and control oligonucleotide.

[5] = tested on: normal cells MCF-10A and L-132; assay: Normal cell growth in vitro (cell counts); type: cell-based, human; details: MCF-10A and L-132, 4 days of treatment
Procedure: as §1

[6] = tested on: HCT-15 human MDR colon carcinoma; assay: Tumor growth in vivo, HCT-15 xenograft; parameters: species or system athymic mice; details: 5x/week, 4 weeks
Procedure: HCT-15 human MDR colon carcinoma tumor cells (2×10^6 cells) were inoculated subcutaneously into the left flank of athymic mice. The CRE or control oligonucleotide was injected intraperitoneally into mice at 0.01-0.1 mg/0.1 ml saline/mouse, daily, 5×/week for 4 weeks, when tumor size reached 30-50 mg ~10 days after cell inoculation. Tumor volumes were obtained from daily measurements of the longest and shortest diameters and calculated by the formula, 4/3πr^3 where r=(length+width)/4.

[7] = tested on: OVCAR8 cells; assay: Cell and nuclear morphology (Giemsa, Hoechst 33258), apoptosis; type: cell-based, human; details: OVCAR 8
Text: After staining, the whole cells were visualized under an inverted microscope at ×240. […] The nuclear morphology of cells was visualized by a fluorescence microscope (Olympus BH2) at ×2600.

[8] = tested on: bcl-2 protein in MCF-10A cells; assay: Bcl-2 protein level by western blot; type: cell-based, human; details: MCF-10A normal cells
Procedure: (§2) Bcl-2 protein levels were measured by standard western blotting techniques known in the art using Anti-bcl-2 antibody.

[9] = tested on: bcl-2 protein in MCF7 cells; assay: Bcl-2 protein level by western blot; type: cell-based, human; details: 150 nM, 4 days
Procedure: as §2

[10] = tested on: protein kinase A (PKA) in cultured ovarian cancer cells; assay: PKA activity of cell extracts by column chromatography; type: cell-based; details: treated versus untreated ovarian cancer cells
Procedure: (§3) Cultured ovarian cancer cells were treated with and without CRE decoy oligonucleotide using the methods of Example 1 below. Extracts were analyzed by column chromatography for PKA activity.

[11] = tested on: protein kinase A (PKA) in HS68 cells; assay: as above; type: cell-based, human; details: treated versus untreated HS68 cells
Procedure: as §3

[12] = tested on: normal human mammary epithelial, lung epithelial and human newborn foreskin fibroblast (HS68) cell lines; assay: Growth of normal cell lines; type: cell-based
[13] = summary in description, concentration not given

Row | Substance | growth inhibition ([1]; 150 nM, separate experiments) | growth inhibition [1, 13] | formation of the CRE-protein complex [2] | changes in cell morphology and apoptotic nuclei [7] | bcl-2 level [8] | bcl-2 level [9] | effect on CAT activity / CRE-directed transcription [3] | further results
1 | 24-mer CRE-hairpin sense and antisense oligonucleotides in combination: two complementary hairpin-forming oligonucleotides combined, producing a cruciform structure (sense TGCCGTCATGCCGTCATGCCGTCA; antisense TGACGGCATGACGGCATGACGGCA; two hairpin-forming strands combined into cruciform structure, further chemistry not given here) | over 80% | over 80% | – | – | – | – | – | –
2 | 5'-TGACGTCA TGACGTCA TGACGTCA-3' (TGACGTCATGACGTCATGACGTCA; chemistry not given here) [24-mer CRE oligonucleotide, transcription factor decoy] | – | – | marked decrease | appearance of apoptotic nuclei | did not alter | markedly reduced | – | inhibition of the CRE-directed transcription ([3]; 4 μg oligonucleotide with 5 μg Δ-71 SS-CAT, DOTAP, versus Δ-71 CAT alone): greater than 90%; maximum level of oligonucleotide incorporation ([4]; 24 hr of incubation): 20-25%; total input oligonucleotide accumulated in the cell ([4]; within 5 hrs): about 10%; IC50 ([1]; 4 days of treatment, with DOTAP, read-out: IC50, growth inhibition of cancer cells): 100 to 150 nM; growth of normal cells [5]: unaffected; toxicity ([6]; 0.01 or 0.1 mg/mouse i.p. daily): without causing toxicity; inhibition of tumor growth ([6]; 0.01 or 0.1 mg/mouse i.p. daily, versus saline treated tumors): greater than 85%; PKA activity peaks (Type-1 and Type-2) [10]: no peaks; PKA activity [11]: did not show any differences; growth of normal cell lines [12]: not affected
3 | 5'-TGCCGTCATGCCGTCATGCCGTCA-3' (chemistry not given here) [24-mer CRE-hairpin sense oligonucleotide] | 70% | 70-80% | – | – | – | – | strongly inhibited | effect on CAT activity / CRE-directed transcription ([3]; listed as SEQ ID NO:10): strong inhibition
4 | 5'-TGTGGTCATGTGGTCATGTGGTCA-3' (DNA, backbone and methylation of C not given here) [reference compound] | – | – | same or similar intensity band | not observed | no effect | no effect | no inhibitory effect | growth inhibitory effect ([1]; 4 days of treatment, with DOTAP): no growth inhibitory effect; tumor growth inhibitory effect ([6]; i.p. daily): no growth inhibitory effect
5 | 5'-GCTGACGTCGGCCTGACGTCAGC-3' (chemistry not given here) [SEQ ID NO:3, non-palindromic hairpin forming CRE oligonucleotide] | – | – | – | – | – | – | interfered with CRE-directed transcription | –
6 | 5'-TGACGGCATGACGGCATGACGGCA-3' (chemistry not given here) | 30% | 30% | – | – | – | – | – | –
